According to ChEMBL document CHEMBL4376834, “Discovery of 4H-Chromen-4-one Derivatives as a New Class of Selective Rho Kinase (ROCK) Inhibitors, which Showed Potent Activity in ex Vivo Diabetic Retinopathy Models” (J Med Chem, 2019):

Tests used:
[1] = target: Serine/threonine-protein kinase SIK2 (Homo sapiens, UniProt Q9H0K1); assay: Inhibition of recombinant human SIK2 (1 to 276 residues) using KKKVSRSGLYRSP as substrate incubated for 40 mins in presence of [gamma33P]ATP by radiometric scintillation counting analysis
[2] = target: Receptor-type tyrosine-protein kinase FLT3 (Homo sapiens, UniProt P36888, D835Y); assay: Inhibition of recombinant human FLT3 D835Y mutant (564 to end residues) using EAIYAAPFAKKK as substrate after 40 mins in presence of [gamma-33ATP] by radiometric scintillation counting analysis
[3] = target: Dual specificity protein kinase CLK3 (Homo sapiens, UniProt P49761); assay: Inhibition of recombinant full length human CLK3 using ERMRPRKRQGSVR as substrate incubated 40 mins in presence of [gamma-33ATP] by radiometric scintillation counting analysis
[4] = target: Proto-oncogene tyrosine-protein kinase receptor Ret (Homo sapiens, UniProt P07949, V804L); assay: Inhibition of recombinant human Ret V804L mutant (658 to end residues) using KKKVSRSGLYRSP as substrate incubated for 40 mins in presence of [gamma33P]ATP by radiometric scintillation counting analysis
[5] = target: 5'-AMP-activated protein kinase catalytic subunit alpha-1 (Homo sapiens, UniProt Q13131); assay: Inhibition of human full length AMPKalpha1 recombinant using AMARAASAAALAR as substrate incubated for 40 mins in presence of [gamma-33ATP] by radiometric scintillation counting analysis
[6] = Inhibition of recombinant human Ros V2262A mutant (1883 to end residues) using KKKSPGEYVNIEFG as substrate incubated for 40 mins in presence of [gamma33P]ATP by radiometric scintillation counting analysis
[7] = target: Tyrosine-protein kinase receptor UFO (Homo sapiens, UniProt P30530, Q764R); assay: Inhibition of human recombinant Axl Q764R mutant (473 to end residues) using KKSRGDYMTMQIG as substrate measured after 40 mins in presence of [gamma33P]ATP by radiometric scintillation counting analysis
CDK3/Cyclin E = CDK3/Cyclin E (Homo sapiens, UniProt Q00526); assay: Inhibition of recombinant full length human CDK3/CyclinE using Histone H1 as substrate incubated for 40 mins in presence of [gamma-33ATP] by radiometric scintillation counting analysis; assay type: protein-complex assay
[8] = target: Maternal embryonic leucine zipper kinase (Homo sapiens, UniProt Q14680); assay: Inhibition of recombinant human MELK (1 to 340 residues) using KKLNRTLSFAEPG as substrate incubated for 40 mins in presence of [gamma-33ATP by radiometric scintillation counting analysis
[9] = target: Receptor-type tyrosine-protein kinase FLT3 (Homo sapiens, UniProt P36888); assay: Inhibition of recombinant human FLT3 (564 to end residues) using EAIYAAPFAKKK as substrate after 40 mins in presence of [gamma-33ATP] by radiometric scintillation counting analysis
[10] = target: Bone morphogenetic protein receptor type-1B (Homo sapiens, UniProt O00238); assay: Inhibition of human recombinant ALK6 (148 to end residues) using casein as substrate incubated for 40 mins in presence of [gamma-33P]ATP by radiometric scintillation counting analysis
[11] = target: Serine/threonine-protein kinase N1 (Homo sapiens, UniProt Q16512, V901I); assay: Inhibition of recombinant human PRK1 V901I (498 to end residues) using KKLNRTLSFAEPG as substrate incubated for 40 mins in presence of [gamma33P]ATP by radiometric scintillation counting analysis
[12] = target: NT-3 growth factor receptor (Homo sapiens, UniProt Q16288); assay: Inhibition of recombinant human TRKC (510 to end residues) using GEEPLYWSFPAKK as substrate incubated for 40 mins in presence of [gamma33P]ATP by radiometric scintillation counting analysis
[13] = target: Platelet-derived growth factor receptor alpha (Homo sapiens, UniProt P16234, D842V); assay: Inhibition of human PDGFRalpha D842V mutant (550 to end residues) using GGMEDIYFEFMGG as substrate measured after 40 mins in presence of [gamma33P]ATP by radiometric scintillation counting analysis
[14] = target: Serine/threonine-protein kinase MRCK alpha (Homo sapiens, UniProt Q5VT25); assay: Inhibition of recombinant human MRCKalpha (1 to 473 residues) using KKRNRTLTV as substrate incubated for 40 mins in presence of [gamma-33ATP by radiometric scintillation counting analysis
[15] = target: Serine/threonine-protein kinase D1 (Homo sapiens, UniProt Q15139); assay: Inhibition of recombinant full-length human PKCmu R135A mutant using KKLNRTLSVA as substrate incubated for 40 mins in presence of [gamma33P]ATP by radiometric scintillation counting analysis
[16] = target: Mitogen-activated protein kinase kinase kinase 7 (Homo sapiens, UniProt O43318); assay: Inhibition of recombinant human TAK1 (1 to 303 residues) using casein as substrate incubated for 40 mins in presence of [gamma33P]ATP by radiometric scintillation counting analysis
Myosin-IIIb = Myosin-IIIb (Homo sapiens, UniProt Q8WXR4); assay: Inhibition of recombinant human MYO3B (1 to 326 residues) using RLGRDKYKTLRQI as substrate measured after 40 mins in presence of [gamma33P]ATP by radiometric scintillation counting analysis
[17] = target: RAC-beta serine/threonine-protein kinase (Homo sapiens, UniProt P31751, S474D); assay: Inhibition of recombinant human PKBbeta S474D mutant (120 to end residues) using GRPRTSSFAEGKK as substrate incubated for 40 mins in presence of [gamma33P]ATP by radiometric scintillation counting analysis
[18] = target: Dual specificity tyrosine-phosphorylation-regulated kinase 3 (Homo sapiens, UniProt O43781); assay: Inhibition of recombinant full length human DYRK3 using RRRFRPASPLRGPP as substrate after 40 mins in presence of [gamma-33ATP] by radiometric scintillation counting analysis
[19] = target: Dual specificity tyrosine-phosphorylation-regulated kinase 1A (Homo sapiens, UniProt Q13627); assay: Inhibition of recombinant full length human DYRK1A using RRRFRPASPLRGPP as substrate after 40 mins in presence of [gamma-33ATP] by radiometric scintillation counting analysis
[20] = target: Phosphorylase b kinase gamma catalytic chain, skeletal muscle/heart isoform (Homo sapiens, UniProt Q16816); assay: Inhibition of recombinant full-length human PhKgamma1 using KKLNRTLSFAEPG as substrate incubated for 40 mins in presence of [gamma33P]ATP by radiometric scintillation counting analysis
[21] = target: Protein kinase C alpha type (Homo sapiens, UniProt P17252); assay: Inhibition of recombinant human full length PKCalpha using histone as substrate incubated for 40 mins in presence of [gamma33P]ATP by radiometric scintillation counting analysis
[22] = target: Tyrosine-protein kinase JAK1 (Homo sapiens, UniProt P23458); assay: Inhibition of human recombinant JAK1 (866 to end residues) using GEEPLYWSFPAKK as substrate after 40 mins by [gamma-33ATP] by radiometric scintillation counting analysis
[23] = Inhibition of recombinant full length human JNK2alpha2 S51N mutant using ATF2 as substrate after 40 mins by [gamma-33ATP] by radiometric scintillation counting analysis

Measured: IC50

Chain of Serine/threonine-protein kinase SIK2 (Q9H0K1 whole entry, the tested form may be a part): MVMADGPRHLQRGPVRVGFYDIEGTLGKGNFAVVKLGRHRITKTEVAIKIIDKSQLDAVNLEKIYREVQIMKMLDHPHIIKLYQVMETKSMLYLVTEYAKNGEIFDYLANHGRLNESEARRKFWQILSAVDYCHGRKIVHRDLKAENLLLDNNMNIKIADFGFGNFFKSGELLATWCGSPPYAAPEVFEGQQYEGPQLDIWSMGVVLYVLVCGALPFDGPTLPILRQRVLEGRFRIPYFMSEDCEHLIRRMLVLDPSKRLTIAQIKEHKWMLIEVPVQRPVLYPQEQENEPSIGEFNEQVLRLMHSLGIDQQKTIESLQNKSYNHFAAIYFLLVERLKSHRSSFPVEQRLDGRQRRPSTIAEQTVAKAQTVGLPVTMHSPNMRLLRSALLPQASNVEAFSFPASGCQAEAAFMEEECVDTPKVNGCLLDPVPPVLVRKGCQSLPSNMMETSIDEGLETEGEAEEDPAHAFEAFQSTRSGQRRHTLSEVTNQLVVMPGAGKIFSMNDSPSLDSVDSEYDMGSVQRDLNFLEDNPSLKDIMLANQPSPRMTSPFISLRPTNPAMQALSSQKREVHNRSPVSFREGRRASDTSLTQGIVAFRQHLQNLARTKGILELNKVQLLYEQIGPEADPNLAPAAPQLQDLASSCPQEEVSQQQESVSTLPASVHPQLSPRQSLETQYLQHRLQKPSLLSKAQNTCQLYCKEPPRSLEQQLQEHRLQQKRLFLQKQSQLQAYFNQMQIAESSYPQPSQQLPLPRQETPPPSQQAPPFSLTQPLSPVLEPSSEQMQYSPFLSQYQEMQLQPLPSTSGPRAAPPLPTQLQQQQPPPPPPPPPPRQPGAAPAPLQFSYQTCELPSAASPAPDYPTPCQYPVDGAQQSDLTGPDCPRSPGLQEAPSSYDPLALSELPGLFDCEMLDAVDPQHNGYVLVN
Chain of 5'-AMP-activated protein kinase catalytic subunit alpha-1 (Q13131 whole entry): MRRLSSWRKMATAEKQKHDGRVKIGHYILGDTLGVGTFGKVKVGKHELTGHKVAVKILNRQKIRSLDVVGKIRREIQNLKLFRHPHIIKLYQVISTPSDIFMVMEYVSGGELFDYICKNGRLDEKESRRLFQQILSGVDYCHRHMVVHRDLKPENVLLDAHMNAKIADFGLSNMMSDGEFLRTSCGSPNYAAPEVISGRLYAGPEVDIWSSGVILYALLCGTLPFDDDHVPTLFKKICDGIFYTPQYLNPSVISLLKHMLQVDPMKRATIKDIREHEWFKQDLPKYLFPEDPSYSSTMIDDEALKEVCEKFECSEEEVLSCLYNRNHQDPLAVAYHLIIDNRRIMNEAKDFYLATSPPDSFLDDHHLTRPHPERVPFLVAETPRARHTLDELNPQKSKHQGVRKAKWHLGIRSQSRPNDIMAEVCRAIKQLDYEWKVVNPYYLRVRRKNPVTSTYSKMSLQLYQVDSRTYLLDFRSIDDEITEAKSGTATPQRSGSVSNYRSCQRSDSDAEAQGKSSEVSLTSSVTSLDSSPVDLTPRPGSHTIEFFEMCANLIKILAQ
Chain of Myosin-IIIb (Q8WXR4 whole entry, the tested form may be a part): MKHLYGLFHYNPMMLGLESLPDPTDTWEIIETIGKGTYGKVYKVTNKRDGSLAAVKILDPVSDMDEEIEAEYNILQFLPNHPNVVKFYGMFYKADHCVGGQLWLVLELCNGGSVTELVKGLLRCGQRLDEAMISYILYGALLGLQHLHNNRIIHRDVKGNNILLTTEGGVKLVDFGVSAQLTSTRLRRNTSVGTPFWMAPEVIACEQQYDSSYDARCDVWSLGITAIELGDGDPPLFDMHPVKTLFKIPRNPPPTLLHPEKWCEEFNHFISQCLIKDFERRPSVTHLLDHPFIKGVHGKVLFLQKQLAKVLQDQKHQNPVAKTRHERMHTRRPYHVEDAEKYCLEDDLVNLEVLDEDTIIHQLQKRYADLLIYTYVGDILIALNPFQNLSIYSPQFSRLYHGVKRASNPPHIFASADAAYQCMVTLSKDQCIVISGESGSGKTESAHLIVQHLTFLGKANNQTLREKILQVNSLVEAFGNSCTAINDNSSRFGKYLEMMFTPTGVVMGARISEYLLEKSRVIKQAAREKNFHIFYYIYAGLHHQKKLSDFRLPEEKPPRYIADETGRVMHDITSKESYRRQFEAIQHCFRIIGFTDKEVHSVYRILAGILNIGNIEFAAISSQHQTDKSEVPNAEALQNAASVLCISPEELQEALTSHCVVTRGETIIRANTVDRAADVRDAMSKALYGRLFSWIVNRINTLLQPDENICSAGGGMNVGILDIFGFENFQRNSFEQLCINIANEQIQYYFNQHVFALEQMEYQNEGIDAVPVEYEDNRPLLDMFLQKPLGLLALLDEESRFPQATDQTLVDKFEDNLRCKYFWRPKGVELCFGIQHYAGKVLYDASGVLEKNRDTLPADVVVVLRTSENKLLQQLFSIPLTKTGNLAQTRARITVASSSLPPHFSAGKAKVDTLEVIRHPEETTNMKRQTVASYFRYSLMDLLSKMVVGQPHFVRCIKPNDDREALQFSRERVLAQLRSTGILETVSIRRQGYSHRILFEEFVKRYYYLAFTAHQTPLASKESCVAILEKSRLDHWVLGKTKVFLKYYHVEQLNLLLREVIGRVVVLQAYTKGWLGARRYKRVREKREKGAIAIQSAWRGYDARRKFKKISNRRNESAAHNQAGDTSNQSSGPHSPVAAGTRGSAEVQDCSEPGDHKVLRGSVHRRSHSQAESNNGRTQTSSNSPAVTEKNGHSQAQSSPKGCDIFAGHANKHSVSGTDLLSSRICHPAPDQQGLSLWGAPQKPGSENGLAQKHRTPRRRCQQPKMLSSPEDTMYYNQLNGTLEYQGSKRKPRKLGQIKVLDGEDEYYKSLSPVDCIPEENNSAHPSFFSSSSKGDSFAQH
Chain of Phosphorylase b kinase gamma catalytic chain, skeletal muscle/heart isoform (Q16816 whole entry, canonical isoform): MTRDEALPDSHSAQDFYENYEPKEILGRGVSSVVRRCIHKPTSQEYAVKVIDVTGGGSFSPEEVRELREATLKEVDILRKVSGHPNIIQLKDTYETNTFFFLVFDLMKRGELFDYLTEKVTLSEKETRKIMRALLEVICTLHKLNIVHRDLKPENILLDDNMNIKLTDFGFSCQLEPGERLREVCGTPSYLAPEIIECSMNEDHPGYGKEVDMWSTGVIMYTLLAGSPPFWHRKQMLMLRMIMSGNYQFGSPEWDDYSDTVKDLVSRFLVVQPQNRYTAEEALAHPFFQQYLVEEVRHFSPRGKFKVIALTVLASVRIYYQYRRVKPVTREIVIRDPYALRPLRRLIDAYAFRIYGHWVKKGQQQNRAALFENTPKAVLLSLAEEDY
Chain of Dual specificity tyrosine-phosphorylation-regulated kinase 3 (O43781 whole entry): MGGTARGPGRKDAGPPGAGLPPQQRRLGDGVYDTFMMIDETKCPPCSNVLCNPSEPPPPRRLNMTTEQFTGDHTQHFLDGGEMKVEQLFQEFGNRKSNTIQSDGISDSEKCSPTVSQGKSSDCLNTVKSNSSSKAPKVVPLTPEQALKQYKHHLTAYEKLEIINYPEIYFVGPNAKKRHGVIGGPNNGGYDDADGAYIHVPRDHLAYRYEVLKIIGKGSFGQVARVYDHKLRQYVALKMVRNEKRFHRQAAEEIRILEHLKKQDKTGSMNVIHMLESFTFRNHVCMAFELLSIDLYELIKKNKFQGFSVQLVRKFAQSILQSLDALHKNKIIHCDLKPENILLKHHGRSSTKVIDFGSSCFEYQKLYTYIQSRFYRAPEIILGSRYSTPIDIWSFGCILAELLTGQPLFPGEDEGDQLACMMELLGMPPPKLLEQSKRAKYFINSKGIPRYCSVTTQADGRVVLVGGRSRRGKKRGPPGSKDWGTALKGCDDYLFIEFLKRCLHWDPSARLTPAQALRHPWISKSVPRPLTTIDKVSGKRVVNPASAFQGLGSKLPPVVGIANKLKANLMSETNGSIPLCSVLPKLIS
Chain of Tyrosine-protein kinase JAK1 (P23458 whole entry): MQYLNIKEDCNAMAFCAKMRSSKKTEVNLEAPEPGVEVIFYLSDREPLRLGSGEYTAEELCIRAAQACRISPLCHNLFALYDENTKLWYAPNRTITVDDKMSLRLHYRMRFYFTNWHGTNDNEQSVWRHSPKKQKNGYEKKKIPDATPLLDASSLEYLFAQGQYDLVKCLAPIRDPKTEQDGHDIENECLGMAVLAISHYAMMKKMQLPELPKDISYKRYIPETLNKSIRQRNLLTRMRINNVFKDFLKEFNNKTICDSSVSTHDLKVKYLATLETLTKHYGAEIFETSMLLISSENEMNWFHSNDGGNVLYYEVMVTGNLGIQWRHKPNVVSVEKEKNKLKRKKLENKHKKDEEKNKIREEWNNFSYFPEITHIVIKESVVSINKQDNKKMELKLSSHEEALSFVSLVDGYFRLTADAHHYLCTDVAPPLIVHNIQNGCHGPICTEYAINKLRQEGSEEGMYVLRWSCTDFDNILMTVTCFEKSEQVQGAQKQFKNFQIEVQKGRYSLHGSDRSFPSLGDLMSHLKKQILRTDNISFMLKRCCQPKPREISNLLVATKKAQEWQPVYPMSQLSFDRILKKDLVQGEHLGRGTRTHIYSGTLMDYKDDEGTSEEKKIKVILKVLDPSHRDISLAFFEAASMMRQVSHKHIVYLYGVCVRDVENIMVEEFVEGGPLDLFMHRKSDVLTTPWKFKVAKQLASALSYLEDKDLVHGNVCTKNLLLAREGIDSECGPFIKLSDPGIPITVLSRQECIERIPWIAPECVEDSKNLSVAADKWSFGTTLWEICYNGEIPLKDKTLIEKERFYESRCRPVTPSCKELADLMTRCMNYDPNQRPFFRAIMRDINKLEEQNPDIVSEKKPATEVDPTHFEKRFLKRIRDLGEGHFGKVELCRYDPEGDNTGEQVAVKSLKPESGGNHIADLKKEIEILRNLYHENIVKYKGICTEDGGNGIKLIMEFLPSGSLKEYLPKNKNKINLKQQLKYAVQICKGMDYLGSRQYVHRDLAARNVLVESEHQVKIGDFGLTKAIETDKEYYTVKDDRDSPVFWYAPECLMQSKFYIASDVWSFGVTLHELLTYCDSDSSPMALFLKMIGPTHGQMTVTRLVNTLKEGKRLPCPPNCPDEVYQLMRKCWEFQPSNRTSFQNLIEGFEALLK

CN(C)c1ccc(C(=O)Nc2cccc(NC(=O)COc3ccc4c(=O)ccoc4c3)c2)cc1
> 10 µM: [1] | [2] | [3] | [4] | [5] | [6] | [7] | CDK3/Cyclin E | [8] | [9] | [10] | [11] | [12] | [13] | [14] | [15] | [16] | Myosin-IIIb | [17] | [18] | [19] | [20] | [21] | [22] | [23]
